`c1ccc(OCc2nc3ccccc3[nH]2)cc1` displayed a melting point of 163 to 165 °C.

`Cc1c(I)cccc1C(=O)O` registered a melting point of 113 to 115 °C.

Consider `N#Cc1ccc(CC(N)=O)cc1`, for which the melting point was in the range of 191 to 193 °C.

`CCCCOc1ccc(C=CC(=O)O)cc1OCC`: the melting point fell in the range of 109 to 111 °C.

`CC(=O)c1cncs1` gave a melting point of 64 to 66 °C.

Consider `COC(=O)c1cc(N)c(OC)c(OC)c1`, for which the melting point fell in the range of 127 to 129 °C.

Compound `NC(=NO)c1cnccn1` showed a melting point of 182 to 184 °C.

Compound `COc1nc(Cl)nc(N2CCCCCC2)n1` gave a melting point of 114 to 116 °C.

`C=CCNC(=O)c1ccccc1N` registered a melting point of 92 to 94 °C.

`CNC(=O)CCCl` gave a melting point of 63 to 65 °C.

On to `COc1cc2c(cc1OC)C(c1cccs1)NCC2` (stereo unspecified), for which the melting point was in the range of 112 to 115 °C.

In turn, `CCC1CCC2(CC1)NC(=O)NC2=O` (stereo unspecified) yielded a melting point of 230 to 232 °C.

Consider `CN(C)c1ncc(Br)cc1C(=O)O`, for which the melting point lay in the range of 143 to 145 °C.

`CCOc1ccccc1-c1cccc(C(=O)O)c1` showed a melting point of 144 to 146 °C.

As to `CSC(C(=O)O)c1ccccc1` (stereo unspecified), the melting point was 75 to 77 °C.

`OCCOc1cncc(Br)c1` registered a melting point of 51 to 53 °C.

As to `O=C(O)CNc1ccccc1Cl`, the melting point lay in the range of 173 to 175 °C.

In turn, `O=C(O)/C=C/c1cc(Cl)c2c(c1)OCO2` displayed a melting point of 259 to 261 °C.

Compound `Cc1cnc2c(c1)NC(=O)CN2` gave a melting point of 249 to 251 °C.

The compound `Nc1ccc(S(N)(=O)=O)c(F)c1` registered a melting point of 152 to 154 °C.

Compound `Sc1nnc(C2CC2)s1` showed a melting point of 108 to 110 °C.

`CC(NC(=O)CCC(=O)O)C(=O)c1ccc(Br)cc1` (stereo unspecified) yielded a melting point of 136 to 138 °C.

In turn, `Nc1ccc(C(=O)NCC(F)(F)F)cc1` gave a melting point of 157 to 159 °C.

With `Cn1cc(Cl)cc1C(=O)O`, the melting point lay within 129 to 131 °C.

For `O=C(O)CCC(=O)N1CCC(O)CC1`, the melting point lay in the range of 121 to 123 °C.

In turn, `c1n[nH]cc1C1CCCNC1` (stereo unspecified) returned a melting point of 71 to 73 °C.

Compound `O=C1CCCc2nc(-c3ccccc3)sc21` gave a melting point of 119 to 121 °C.

In turn, `NC(=S)Cc1ccccc1` returned a melting point of 84 to 86 °C.

Compound `O=[N+]([O-])CC(c1ccco1)c1c(-c2ccccc2)[nH]c2ccccc12` (stereo unspecified) displayed a melting point of 127 to 129 °C.

With `O=C1CC(CO)CN1CCc1ccccc1` (stereo unspecified), the melting point was 65 to 67 °C.

Regarding `ClCc1coc(-c2ccc(Cl)cc2)n1`, the melting point lay in the range of 91 to 93 °C.

`ClCc1ccc(Oc2cccc(Cl)c2Cl)cc1`: the melting point fell in the range of 62 to 64 °C.

For `CN1CC(=O)Nc2cnccc21`, the melting point was 274 to 276 °C.

`O=C(O)CCOc1ccc(Cl)cc1Cl` showed a melting point of 93 to 95 °C.

Consider `Nc1nc(-c2ccc(O)cc2)n[nH]1`, for which the melting point is 268 to 270 °C.

Turning to `CC1Cc2ccccc2N1c1ccccc1C(=O)O` (stereo unspecified), the melting point lay within 124 to 126 °C.

In turn, `Cc1ccc(SCCC(=O)NN)cc1` displayed a melting point of 106 to 108 °C.

With `O=C(Nc1ccc(Cl)cc1)OCC(F)(F)F`, the melting point was 69 to 71 °C.

`COC(=O)c1cc(Cl)ccn1`: the melting point lay in the range of 55 to 57 °C.

On to `Cn1ccnc1C(=O)OCC(F)(F)F`, for which the melting point is 83 to 85 °C.

In turn, `O=C1CCCN1c1cccc(O)c1` came in with a melting point of 201 to 203 °C.

`NC(=O)c1ccccc1Oc1ncccc1C(=O)O` came in with a melting point of 253 to 255 °C.

Compound `Fc1ccccc1CNc1ccncc1` gave a melting point of 83 to 85 °C.

Regarding `O=C(O)c1noc(-c2ccccc2)n1`, the melting point lay in the range of 111 to 113 °C.

In turn, `CC1CN(C(=O)OC(C)(C)C)CC(C)N1` (stereo unspecified) displayed a melting point of 64 to 66 °C.

Turning to `Nc1ccccc1NS(=O)(=O)c1cccs1`, the melting point was 188 to 190 °C.

The compound `Nc1ccc(CN2CCOC2=O)cc1` returned a melting point of 99 to 101 °C.

`Cc1ccccc1OCC(=O)NN` registered a melting point of 120 to 122 °C.

As to `CCOCCOc1ccc(Br)cc1C=O`, the melting point lay in the range of 28 to 30 °C.

As for `CCn1cc2ccc(N)cc2n1`, the melting point fell in the range of 97 to 99 °C.

On to `O=C(O)CCCOc1ccc(Br)cc1`, for which the melting point was 130 to 132 °C.

The record behind these values is a melting point compilation (Tetko et al.).
